Experimental data from paper PMC8533176, “1,5-Benzodiazepin-2(3H)-ones: In Vitro Evaluation as Antiparkinsonian Agents” (Antioxidants, 2021).

Key:
[1] = ABTS radical scavenging assay; format: biochemical
Method: The mixture was stored in the dark at room temperature for 16 h. […] All the compounds tested were dissolved in EtOH. […] The degree of decolorization was calculated as the percentage reduction of absorbance. […] Trolox was used as a reference antioxidant.

[2] = Ferric reducing antioxidant power (FRAP) assay; format: biochemical; design: FRAP Assay Trolox Equivalents: unit not given here
Method: FRAP reagent was prepared by mixing 10 mL of 300 mM acetate buffer with 1 mL of 10 mM 2,4,6-tripyridyl-S-triazine (TPTZ) in HCl 40 mM and 1mL of FeCl3·6H2O 20 mM. […] Trolox was used as assay control.

[3] = Kinetic solubility by UV spectrometry; format: physicochemical; conditions: PBS 50 mM, aqueous buffer, kinetic from dmso stock
How it was run: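 Compound from 20 mM DMSO stock was added to 10 mM PBS, shaken 2 h and filtered. The filtrate's UV absorbance (270–600 nm) was quantified against a 10–200 µM calibration curve in 50 mM PBS with 2% DMSO. Run in triplicate.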

SH-SY5Y cells [4] = assay: Cytotoxicity, MTT assay, SH-SY5Y; format: cell-based; conditions: Homo sapiens, MTT, cytotoxicity, read-out: SH-SY5Y IC50
How it was run: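 Cells treated with 5–200 µM compound (DMSO vehicle, four replicates) after overnight attachment. Viability read by MTT reduction (2 h, 37 °C, dark; formazan in DMSO, A570) relative to vehicle controls; IC50 from dose–response regression.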

SH-SY5Y cells [5] = assay: LDH release under H2O2; format: cell-based, human; conditions: H2O2 250 µM 24 h; compounds 24 h before; Figure 9
SH-SY5Y cells [6] = assay: Mitochondrial membrane potential (JC-1); format: cell-based, human; conditions: 400 µM H2O2 4 h; compounds 24 h before at different concentrations
Method: The fluorescent dye 5,5′,6,6′-tetrachloro-1,1′,3,3′-tetraethylbenzimidazolylcarbocyanine iodide (JC-1) was used for measuring MMP [89]. A decrease in fluorescence intensity represents mitochondrial membrane depolarization. For fluorescence ratio detection under oxidative stress conditions, 96-well culture black clear bottom plates were seeded with 3 × 10^3 SH-SY5Y cells, and after 24-h incubation, they were treated with the test compound and left out for 24 h. Then, the cells were exposed to different H2O2 concentrations for 4 h. After the incubation period, the cells were washed twice with Hanks buffer and then stained with 5 µM JC-1 in culture media in the dark in a CO2 incubator at 37 °C for 20 min. At the end of the dye incubation period, cells were washed three times with Hanks buffer, and 200 µL of fresh buffer was added. Cells were analyzed with a Varioskan microplate reader. J-aggregate red fluorescence intensity was measured at λex = 535 nm and λem = 595 nm, while λem = 485 nm and λem = 535 nm was used for J-monomer green fluorescence. Results were expressed as the ratio of fluorescence intensity of J-aggregates to J-monomers. All the experiments were performed three times in quadruplicate for each compound concentration.

SH-SY5Y cells [7] = assay: Intracellular GSH recovery (monochlorobimane); format: cell-based, human; conditions: H2O2 250 µM 24 h; 5, 10 and 20 µM
Method: For intracellular GSH determination studies, the method of Senft et al. was used. In summary, 3 × 10^3 SH-SY5Y cells were seeded in 96-well culture black clear bottom plates and after 24 h were treated with the test compound for an additional 24 h. Then, they were exposed to H2O2 for 24 h. After the incubation period, cells were loaded with 30 µM mClB and incubated at 37 °C for 30 min in a CO2 incubator as described by Sebastia et al.. At the end of the mClB incubation period, fluorescence was measured with a Varioskan microplate reader at λex = 405 nm and λem = 475. Results are expressed as the percentage of the fluorescence increase compared with that of the control. Experiments were performed four times in triplicate.

[8] = Chemical reactivity with H2O2; format: physicochemical; conditions: H2O2 500 µM, 37 °C, 4 h, DMEM:F12 without cells
Method: In our case, before running the protection experiments under oxidative stress conditions, we carried out experiments to assess the potential reactivity of compounds 9, 11, 13, and 18 at four different concentrations (5, 10, 20, and 40 µM) with H2O2 500 µM at 37 °C for 4 h in DMEM:F12 (without phenol red, FBS, and cells). Curcumin was used as a control compound.

SH-SY5Y cells [9] = assay: Neuroprotection against H2O2-induced oxidative stress, MTT; conditions: H2O2 250 µM 24 h; compounds 5-50 µM 24 h before; Figure 8

Question: Which results are given for O=C1CC(c2ccccc2)=Nc2ccccc2N1 [Compound 18, 4-Phenyl-1H-1,5-benzodiazepin-2(3H)-one]?
Answer: IC50 ([1]; 30-min incubation): 187 ± 15.2 µM; ABTS Assay TEAC50 ([1]; Equivalent antioxidant capacity at Trolox 50 mM): 0.36; ABTS Assay TEAC100 ([1]; Equivalent antioxidant capacity at Trolox 100 mM): 0.21; FRAP Assay Trolox Equivalents [2]: 0.89; FRAP Assay Antioxidant Capacity (%) at 100 uM ([2]; compound at 100 uM): 45.7%; FRAP Assay Antioxidant Capacity (%) at 200 uM ([2]; compound at 200 uM): 65.1%; solubility [3]: < 100 µM; IC50 (SH-SY5Y cells [4]): > 250 µM; LDH leakage (SH-SY5Y cells [5]): significant reduction at all the concentrations tested; MMP recovery (SH-SY5Y cells [6]): 10–25%; intracellular GSH recovery (SH-SY5Y cells [7]): 18–20%; Reaction with H2O2 [8]: did not show any significant reaction; Neuroprotection effect, cell viability (MTT) (SH-SY5Y cells [9]): significantly improved
